Structures can show the parent of a compound that is named as a salt. The source made the active and inactive calls.
What was measured:
[1] = P. falciparum Dd2 growth inhibitors, dose response, SYBR Green, cherry-picked samples (AID 1159567); assay type: functional, cell-based
[2] = Luminescence-based cell-based high throughput dose response assay to identify activators of the DAF-12 from the parasite S. stercoralis (ssDAF-12).; assay type: functional
[3] = target: T1, Oxysterols receptor LXR-beta (Homo sapiens, UniProt P55055); assay: LXR agonists, Gal4 luciferase reporter, dose response, counter-screen for ssDAF-12 agonist project, cell-based, luminescence, HEK293, S. stercoralis campaign (AID 720737); assay type: functional; conditions: read-out: IC50 (the source's name)
T1 sequence (P55055 whole entry): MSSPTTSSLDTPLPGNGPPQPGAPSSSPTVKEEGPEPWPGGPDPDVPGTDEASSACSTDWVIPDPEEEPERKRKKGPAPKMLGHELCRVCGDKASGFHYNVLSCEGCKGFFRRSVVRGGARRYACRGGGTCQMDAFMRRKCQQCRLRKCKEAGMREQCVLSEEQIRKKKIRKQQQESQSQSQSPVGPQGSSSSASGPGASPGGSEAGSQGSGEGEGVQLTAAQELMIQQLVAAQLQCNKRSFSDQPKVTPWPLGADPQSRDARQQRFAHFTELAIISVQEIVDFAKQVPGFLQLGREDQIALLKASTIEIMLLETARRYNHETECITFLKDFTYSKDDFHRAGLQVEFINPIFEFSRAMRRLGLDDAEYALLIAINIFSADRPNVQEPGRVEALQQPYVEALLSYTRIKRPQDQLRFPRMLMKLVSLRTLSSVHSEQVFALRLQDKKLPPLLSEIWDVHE

[4] = tested on: P388/ADR; assay: cells; assay type: functional; conditions: Mus musculus
[5] = tested on: SN12K1; assay: cells; assay type: functional; conditions: Homo sapiens
[6] = tested on: P388; assay: cells; assay type: functional; conditions: Mus musculus
[7] = target: Paired box protein Pax-8 (Homo sapiens, UniProt Q06710); assay: PAX8 transcriptional activity inhibition in RMG-I – RMG-I cells, luciferase, cherry-pick, dose response (AID 687027); assay type: functional, cell-based;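 also: luciferase reporter driven by Pax8 target thyroperoxidase promoter measured by SteadyGlo luminescence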
Chain of Paired box protein Pax-8 (Q06710 whole entry): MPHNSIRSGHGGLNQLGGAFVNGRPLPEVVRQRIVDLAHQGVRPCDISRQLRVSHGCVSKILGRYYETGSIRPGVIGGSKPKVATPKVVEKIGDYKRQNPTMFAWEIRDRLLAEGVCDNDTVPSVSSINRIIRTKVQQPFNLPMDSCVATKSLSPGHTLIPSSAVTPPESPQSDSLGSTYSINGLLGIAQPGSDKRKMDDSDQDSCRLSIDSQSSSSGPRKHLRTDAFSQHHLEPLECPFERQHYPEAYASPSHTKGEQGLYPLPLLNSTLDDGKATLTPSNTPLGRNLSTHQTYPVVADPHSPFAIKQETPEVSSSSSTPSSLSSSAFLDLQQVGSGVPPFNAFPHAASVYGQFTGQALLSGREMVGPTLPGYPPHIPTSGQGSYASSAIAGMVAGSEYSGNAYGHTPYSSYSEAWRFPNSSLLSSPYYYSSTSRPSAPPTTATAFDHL

[8] = activation of miR-122 Renilla sensor silencing – cell-based, Huh7 psiCHECK-miR122, Renilla luciferase, cherry-picked, dose response (AID 651956); assay type: functional;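 also: huh7 hepatoma cells stably carrying a psiCHECK-2 miR-122 sensor plasmid; renilla luciferase signal reporting endogenous miR-122 activity after 48 h compound exposure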
[9] = general mammalian cell viability loss – inhibitor set, cherry-pick, set 2, cytotoxicity control for miR-122 modulator project, dose response (AID 720697); assay type: functional, cell-based
[10] = target: T2, Leucine aminopeptidase (Plasmodium falciparum 3D7, UniProt Q8IL11); assay: P. falciparum M17LAP inhibitors, primary screen, biochemical, fluorogenic H-Leu-NHMec substrate, 1536-well (AID 1619); assay type: functional
T2 sequence (Q8IL11 whole entry): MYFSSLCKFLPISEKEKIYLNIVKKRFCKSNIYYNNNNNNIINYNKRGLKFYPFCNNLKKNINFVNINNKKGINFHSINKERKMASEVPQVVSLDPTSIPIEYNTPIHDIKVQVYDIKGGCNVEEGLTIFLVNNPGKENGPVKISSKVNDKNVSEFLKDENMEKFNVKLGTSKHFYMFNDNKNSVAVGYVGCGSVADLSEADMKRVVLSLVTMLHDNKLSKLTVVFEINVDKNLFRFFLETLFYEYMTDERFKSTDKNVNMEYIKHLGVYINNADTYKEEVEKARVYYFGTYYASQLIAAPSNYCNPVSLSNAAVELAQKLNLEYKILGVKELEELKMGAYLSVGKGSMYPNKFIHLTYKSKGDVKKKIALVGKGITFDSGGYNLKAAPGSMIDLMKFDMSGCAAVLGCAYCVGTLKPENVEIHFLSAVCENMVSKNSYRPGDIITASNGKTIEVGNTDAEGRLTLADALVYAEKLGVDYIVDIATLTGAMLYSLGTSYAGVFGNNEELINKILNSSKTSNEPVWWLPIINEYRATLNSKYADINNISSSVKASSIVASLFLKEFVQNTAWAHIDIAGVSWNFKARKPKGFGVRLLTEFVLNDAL

[11] = target: Cytochrome P450 2C19 (Homo sapiens, UniProt P33261); assay: Cytochrome panel assay with activity outcomes. Panel member name: p450-cyp2c19 Compounds with AC50 equal or less than 10 uM are considered active; assay type: functional; conditions: read-out: AC50
Chain of Cytochrome P450 2C19 (P33261 whole entry): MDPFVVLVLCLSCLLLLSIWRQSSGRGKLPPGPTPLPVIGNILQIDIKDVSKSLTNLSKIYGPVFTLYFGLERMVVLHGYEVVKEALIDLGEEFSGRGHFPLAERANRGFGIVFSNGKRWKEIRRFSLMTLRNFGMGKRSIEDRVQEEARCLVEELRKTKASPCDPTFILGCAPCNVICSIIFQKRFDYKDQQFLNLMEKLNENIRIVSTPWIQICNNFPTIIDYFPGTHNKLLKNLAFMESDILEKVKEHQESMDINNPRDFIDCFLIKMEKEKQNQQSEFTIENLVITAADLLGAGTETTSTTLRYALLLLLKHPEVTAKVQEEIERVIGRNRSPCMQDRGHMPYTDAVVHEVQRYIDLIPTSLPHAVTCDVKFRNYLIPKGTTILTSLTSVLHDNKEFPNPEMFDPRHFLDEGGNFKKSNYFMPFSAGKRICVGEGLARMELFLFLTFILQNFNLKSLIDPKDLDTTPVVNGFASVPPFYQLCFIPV

[12] = target: Cytochrome P450 2D6 (Homo sapiens, UniProt P10635);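 also: CYP2D6 member of a cytochrome P450 panel assay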
Chain of Cytochrome P450 2D6 (P10635 whole entry): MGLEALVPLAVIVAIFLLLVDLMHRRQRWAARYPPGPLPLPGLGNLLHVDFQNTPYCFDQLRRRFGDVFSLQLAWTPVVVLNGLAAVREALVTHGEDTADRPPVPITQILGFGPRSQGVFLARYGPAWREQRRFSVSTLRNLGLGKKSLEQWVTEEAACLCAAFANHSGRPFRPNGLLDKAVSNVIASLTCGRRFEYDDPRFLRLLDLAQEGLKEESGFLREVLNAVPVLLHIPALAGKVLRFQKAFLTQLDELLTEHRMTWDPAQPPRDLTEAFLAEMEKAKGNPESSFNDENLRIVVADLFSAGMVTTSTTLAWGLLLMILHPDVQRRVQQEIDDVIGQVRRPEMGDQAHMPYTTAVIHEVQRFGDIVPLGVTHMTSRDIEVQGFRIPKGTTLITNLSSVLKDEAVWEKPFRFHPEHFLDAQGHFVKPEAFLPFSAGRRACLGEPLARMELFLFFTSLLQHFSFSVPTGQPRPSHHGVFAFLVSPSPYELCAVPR

[13] = cells
[14] = luciferase reporter signal suppression in cells – H4 neuroglioma cells, luminescence, dose response (AID 1990); assay type: functional, cell-based
[15] = Luminescence Cell-Based Dose Response HTS to Identify Inhibitors of 5'UTR Stem-Loop Driven Prion Protein mRNA Translation in H4 Neuroglioblastoma Cells. [Related pubchem assays: 1827 (Project Summary), 1813 (Primary HTS)]; assay type: functional
[16] = alpha-synuclein stem-loop luciferase translation blockers – H4 neuroglioma cells, luminescence, confirmation (AID 1988); assay type: functional, cell-based
[17] = HPDE-C7 pancreatic duct cell viability loss – fluorescence, HTS (AID 430); assay type: functional, cell-based; conditions: Homo sapiens
[18] = viability loss of HPDE-C7K cells – cell-based, fluorescence, HTS, primary screen (AID 431); assay type: functional; conditions: Homo sapiens
[19] = viability of PTEN-deleted HCT116 cells – cell-based, HCT116 PTEN knockout, dose response (AID 1047); assay type: functional;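 also: HCT116 colon tumor cells with PTEN knocked out; cells exposed to compound for 60 hours before readout; potency for loss of cell viability measured by luminescence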
[20] = viability of HCT116 lacking mutant beta-catenin – cell-based, human colon tumor, dose response (AID 1045); assay type: functional;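 also: HCT116 colon tumor cells with beta catenin knocked out; cells exposed to compound for 60 hours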
[21] = target: T3, DNA repair protein RAD52 homolog (Homo sapiens, UniProt P43351); assay type: functional, biochemical
T3 sequence (P43351 whole entry): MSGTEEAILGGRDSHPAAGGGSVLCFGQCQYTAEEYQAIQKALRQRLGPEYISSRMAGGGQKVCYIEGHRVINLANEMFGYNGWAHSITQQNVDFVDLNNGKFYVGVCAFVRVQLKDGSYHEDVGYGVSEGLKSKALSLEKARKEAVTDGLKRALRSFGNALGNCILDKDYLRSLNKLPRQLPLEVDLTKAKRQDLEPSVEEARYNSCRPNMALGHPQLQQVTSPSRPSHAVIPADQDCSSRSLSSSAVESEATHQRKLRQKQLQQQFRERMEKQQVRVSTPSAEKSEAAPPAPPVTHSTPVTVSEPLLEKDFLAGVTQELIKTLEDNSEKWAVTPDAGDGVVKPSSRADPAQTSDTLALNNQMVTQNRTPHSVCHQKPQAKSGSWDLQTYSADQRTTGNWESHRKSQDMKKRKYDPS

[22] = Luminescence Cell-Based Dose Response HTS to Identify Activators of Luciferase Translation or Activity in H4 […] Cells. [Related pubchem assays: 1829 (Project Summary), 1814 (Primary HTS)]; assay type: functional
[23] = tested on: H4; assay: Luminescence Cell-Based Dose Response HTS to Identify Activators of 5'UTR Stem-Loop Driven Prion Protein mRNA Translation in H4 Neuroglioblastoma Cells. [Related pubchem assays: 1829 (Project Summary), 1814 (Primary HTS)]; assay type: functional; conditions: Homo sapiens
[24] = Trypanosoma cruzi growth suppression in host cells – NIH3T3 host cells, beta-gal luminescence, confirmation (AID 2044); assay type: functional, cell-based;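 also: intracellular parasites grown in NIH/3T3 mouse fibroblasts as host cells; luminescent beta-galactosidase reporter signal from transgenic T. cruzi replicating inside host cells; inhibitors lower the luminescence signal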
[25] = NIH3T3 cell viability loss – ATP luminescence, mouse fibroblasts, counter-screen, dose response (AID 2010); assay type: functional, cell-based;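 also: cells exposed to compound for about 90 hours before reading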

With CCS(=O)(=O)N1CCCCN2[C@H](CO)[C@@H](c3ccc(-c4cccc(C#N)c4)cc3)[C@@H]2C1 the AC50 [1] was 9.04 µM (active).

For COC(=O)c1ccccc1NC(=O)c1ccnn1C, the IC50 [2] was > 67.5 µM (inactive) and the EC50 [3] was > 67.5 µM (inactive).

With COc1ccc(CC2C(=O)NC(C)C(=O)N(C)C3C(=O)N(C)C(Cc4ccc(O)c(c4)Oc4ccc(cc4)C3O)C(=O)NC(C)C(=O)NC(C)C(=O)N2C)cc1 (stereo not drawn) the GI50 [4] was 2.26 µM (inactive), the GI50 [5] was 0.00262 µM (active) and the GI50 [6] was 0.00373 µM (active). For the same compound, the AC50 [7] was < 0.26 µM (active).

With C[C@@H]1CN([C@@H](C)CO)C(=O)c2cc(NS(=O)(=O)c3ccc(F)cc3)ccc2O[C@@H]1CN(C)Cc1ccc(-c2ccccc2)cc1 the AC50 [8] was 17.7 µM (active) and the AC50 [9] was < 0.195 µM (active).

For CCc1nnc(NS(=O)(=O)c2ccc(/N=C/c3c(C)nn(-c4ccc(C)cc4)c3O)cc2)s1, the IC50 [10] was 8.11 µM (active), the AC50 [11] was 5.01 µM (inconclusive) and the AC50 [12] was 5.62 µM (inconclusive).

In the case of Cc1c(NC(=O)CN2C(=O)NC3(CCCCC3C)C2=O)cccc1[N+](=O)[O-] (stereo not drawn), the IC50 [13] is reported as 11.6 µM (active).

With CSc1ccc2c(c1)N(CCC1CCCCN1C)c1ccccc1S2 (stereo not drawn) [THIORIDAZINE HYDROCHLORIDE] the EC50 [14] was > 120 µM (not active), the EC50 [15] was > 60 µM (not active) and the EC50 [16] was > 120 µM (not active). The EC50 [17] was 8.18 µM (active), the EC50 [18] was 3.43 µM (active) and the EC50 [19] was 11.1 µM (active). The EC50 [20] was 9.28 µM (active) and the AC50 [21] was 13.7 µM (active).

In the case of CCc1ccc2cc3c(cc2n1)C(=O)c1ccccc1-3, the IC50 [2] is reported as > 67.5 µM (inactive) and the EC50 [3] is reported as > 67.5 µM (inactive).

With CCCCC[C@H](O)/C=C/[C@H]1C=CC(=O)[C@@H]1C/C=C\CCCC(=O)O [PROSTAGLANDIN A2] the EC50 [17] was > 20 µM (not active) and the EC50 [18] was > 20 µM (not active).

For O=C(CCNC(=O)c1ccccc1)N=Nc1c(O)[nH]c2ccccc12, the IC50 [2] was > 67.5 µM (inactive) and the EC50 [3] was > 67.5 µM (inactive).

In the case of CN1c2ccsc2/C(=N/Nc2ccc(F)cc2)CS1(=O)=O, the EC50 [22] is reported as 54.8 µM (active), the EC50 [23] is reported as 49.1 µM (active) and the EC50 [24] is reported as 3.22 µM (active). The EC50 [25] was > 60 µM (not active), the IC50 [2] was > 67.5 µM (inactive) and the EC50 [3] was > 67.5 µM (inactive).
